{"source": "patent US9982256B2", "about": "“Random RNAi libraries, methods of generating same, and screening methods utilizing same” (The Trustees of the University of Pennsylvania, priority 2006, dated 2018)", "key": {"FL5.12 cells [1]": {"test_system": "FL5.12 cells", "test": "Survival of shRNA-infected FL5.12 cells after IL-3 withdrawal (flow cytometry, GFP/PI)", "assay_type": "cell-based, murine", "conditions": "15 hours into second IL-3 withdrawal, after 1 round of withdrawal and recovery; 6 independent infections; p<0.0001, Student's t-test", "procedure": "High-titer retrovirus was generated by co-transfecting 293T cells with retroviral vector and pCL-Eco, which encodes both ecotropic envelope and gag-pol proteins, using an Effectene® transfection kit (Qiagen). Culture supernatant was harvested each day from 24-72 hours after transfection and used either to infect FL5.12 cells or frozen at ^−80° C. for future use. 1-2 million cells were seeded in each well of a 24-well plate and were centrifuged at 2500×g for 1 hour with viral supernatant, 5 μg/ml polybrene, and 0.3 ng/ml interleukin-3 (IL-3). Cells were stored in the incubator for 2 hours. Viral supernatant was replaced with fresh batches, and the spin/incubation process was repeated 2 more times. Infection efficiency was determined 24-48 hours later by flow cytometric analysis of GFP expression.\nThe murine pro-B cell line FL5.12 is IL-3 dependent; 100% of the cells die by apoptosis after IL-3 withdrawal for 3 days, and >90% of cells can be rescued by expression of Bcl-xL59. […]\n10 shRNA-encoding sequences (“books”) were retrieved by PCR, cloned back into pSiren, and sequenced. […] After 15 hours, cells were analyzed by flow cytometry, identifying infected cells by GFP fluorescence and dead cells by propidium iodide (PI) staining. […]"}, "caspase 3": {"test_system": "caspase 3", "test": "Caspase 3 enzymatic activity in book-infected FL5.12 cells", "assay_type": "cell-based, murine", "conditions": "correlated with the improved survival after IL-3 withdrawal", "procedure": "(§1) 10 shRNA-encoding sequences (“books”) were retrieved by PCR, cloned back into pSiren, and sequenced. Of the 10, two were the same (books 1 and 7), indicating selective enrichment. FL5.12 cells were infected with 3 of the putative shRNA molecules separately (books 1, 3, and 8), each one assayed in 6 independent infections. The cells were subjected to 1 round of IL-3 withdrawal and recovery and subjected to a second withdrawal from IL-3. After 15 hours, cells were analyzed by flow cytometry, identifying infected cells by GFP fluorescence and dead cells by propidium iodide (PI) staining. Fractions of GFP-positive (infected), PI-negative (live) cells relative to the start of the experiment (just prior to the first IL-3 withdrawal) are depicted in FIG. 16. […] The improved survival with books 1 and 3 correlated with a decrease in caspase 3 enzymatic activity. Because the cycling of IL-3 withdrawal included a recovery segment, books 1 and 3 were tested for effects on growth rate and none were seen. The stem sequences of books 1 and 3 are as follows: […]"}, "FL5.12 cells [2]": {"test_system": "FL5.12 cells", "test": "Growth rate of book-infected FL5.12 cells", "assay_type": "cell-based, murine", "procedure": "as §1"}, "293T cells": {"test_system": "293T cells", "test": "Overnight CDDO treatment of 293T cells, to establish an apoptosis assay", "assay_type": "cell-based, human", "conditions": "for adherent cells remaining after treatment: then medium without CDDO", "procedure": "293T cells (a human, embryonic kidney cell line) were treated overnight (16 hours) with 2, 4, 6, and 8 μM of the synthetic triterpenoid, CDDO."}, "primary FRDA fibroblasts [3]": {"test_system": "primary FRDA fibroblasts", "test": "Glutathione depletion with BSO: viability of primary FRDA fibroblasts", "assay_type": "cell-based", "conditions": "1 mM BSO in media with 0.3 mg/ml fully saturated human transferrin; 48 hours; 6-well plate", "procedure": "(§2) Primary FRDA fibroblasts are far more sensitive to oxidative stress than normal control fibroblasts. (Jauslin et al. (Hum Molec Gen 11: 3055, 2002) used L-buthionine (S,R)-sulfoximine (BSO) to block the rate-limiting enzyme in glutathione synthesis, and found a concentration (0.05 mM) at which virtually all primary FRDA fibroblasts lose viability, but more than 90% of normal control fibroblasts retain viability.)\n(§3) […] […] By washing the cells, adding back their normal medium, and looking for colony formation, the minimum conditions under which 100% of the cells die were confirmed."}, "[4]": {"test_system": "normal control fibroblasts", "test": "Glutathione depletion with BSO: viability of normal control fibroblasts", "assay_type": "cell-based", "conditions": "1 mM BSO in media with 0.3 mg/ml fully saturated human transferrin; 48 hours", "procedure": "as §2, §3"}, "primary FRDA fibroblasts [5]": {"test_system": "primary FRDA fibroblasts", "conditions": "0.05 mM BSO; Jauslin et al. 2002; cited from earlier work"}, "[6]": {"test_system": "normal control fibroblasts", "conditions": "0.05 mM BSO; Jauslin et al. 2002; cited from earlier work"}}, "data": [{"molecule": "5′-GTGGATCAGTGTGTTATAGCTCGGGCAGG-3′ (listed as DNA, chemistry not given here) [Book 3]", "values": [{"measurement": "survival (GFP-positive, PI-negative cells) relative to random book (ctr153) or vector alone (pSiren)", "setting": "FL5.12 cells [1]", "result": "statistically significant improvement in survival"}, {"measurement": "caspase 3 enzymatic activity", "setting": "caspase 3", "result": "decrease"}, {"measurement": "effects on growth rate", "setting": "FL5.12 cells [2]", "result": "none"}]}, {"molecule": "CC1(C)CC[C@]2(C(=O)O)CC[C@]3(C)[C@H](C(=O)C=C4[C@@]5(C)C=C(C#N)C(=O)C(C)(C)[C@@H]5CC[C@]43C)[C@@H]2C1", "note": "[CDDO]", "values": [{"measurement": "adherent cells remaining after treatment", "setting": "293T cells; 2 μM CDDO overnight (16 hours)", "result": "some adherent cells"}, {"measurement": "adherent cells remaining after treatment", "setting": "293T cells; 4 μM CDDO overnight (16 hours)", "result": "no remaining adherent cells"}, {"measurement": "adherent cells remaining after treatment", "setting": "293T cells; 6 μM CDDO overnight (16 hours)", "result": "no remaining adherent cells"}, {"measurement": "adherent cells remaining after treatment", "setting": "293T cells; 8 μM CDDO overnight (16 hours)", "result": "no remaining adherent cells"}, {"measurement": "adherent colonies after post-treatment culture", "setting": "293T cells; repeat with 4 μM CDDO, five days of post-treatment culture in medium without CDDO", "result": "no adherent colonies were evident"}]}, {"molecule": "5′-GGGTAGCTACATTTGCATATGTGGATATG-3′ (listed as DNA, chemistry not given here) [Book 1, books 1 and 7 were the same]", "values": [{"measurement": "survival (GFP-positive, PI-negative cells) relative to random book (ctr153) or vector alone (pSiren)", "setting": "FL5.12 cells [1]", "result": "statistically significant improvement in survival"}, {"measurement": "caspase 3 enzymatic activity", "setting": "caspase 3", "result": "decrease"}, {"measurement": "effects on growth rate", "setting": "FL5.12 cells [2]", "result": "none"}]}, {"molecule": "CCCCS(=N)(=O)CCC(N)C(=O)O", "note": "[BSO, L-buthionine (S,R)-sulfoximine]", "values": [{"measurement": "viability of FRDA cells", "setting": "primary FRDA fibroblasts [3]", "result": "all the cells in a 6-well plate nonviable"}, {"measurement": "age- and passage-matched controls remaining viable", "setting": "[4]", "result": "majority"}, {"measurement": "primary FRDA fibroblasts losing viability", "setting": "primary FRDA fibroblasts [5]", "result": "virtually all"}, {"measurement": "normal control fibroblasts retaining viability", "setting": "[6]", "result": "more than 90%"}]}]}
